# Test results: paper PMC5516028, “Molecular tools for GABAA receptors: High affinity ligands for β1-containing subtypes” (Scientific Reports, 2017)
# Where two headings read alike, the source gives them in different places.
# Assays:
# Type in all cases: cell-based
# [1] = biological target: T1, α1β3N41R GABAA receptors (Rattus norvegicus, UniProt P62813+P63079, N66R); test: Two electrode voltage clamp in Xenopus laevis oocytes, mutant α1β3N41R; details: co-applied with GABA EC3-5, read-out: EC50 values for the mutated receptors
# T1 construct: expressed in transfected cells; host or cells: Xenopus laevis oocytes, mRNA injected
# Description: (§1) cDNA’s of rat GABAA receptor subunits α1, α4, β1, β2, β3 and γ2S were cloned as described. cDNAs of the rat subunits α2, α3 and α5 were gifts from P. Malherbe, that of α6 and γ1 were gifts of P. Seeburg and that of δ was a gift of C. Czajkowski. The mutants were constructed using the Q5 Site-Directed Mutagenesis Kit (New England Biolabs) following manufacturer’s instruction. We used the wild-type rat β3-pCI vector as template and the primers […] and […] resulting in a substitution of amino acid N41 (AAC) to R (AGG). We used the wild-type rat β1-pCI vector as template and the primers […] and […] resulting in a substitution of amino acid R41 (CGG) to N (AAC). The mutated subunits were confirmed by sequencing.
# (§2) In vitro transcription of mRNA was based on the cDNA expression vectors encoding for rat GABAA receptor subunits α1–6, β1-3, γ1,2, δ and the two β mutants (β1R41N and β3N41R)[40]. After linearizing the cDNA vectors with appropriate restriction endonucleases, the cDNA was purified and concentrated with the DNA Clean and Contentrator ^TM Kit (Zymoresearch, Catalog No. D4005). Capped transcripts of the purified cDNA were produced using the mMESSAGE mMACHINE® T7 transcription kit (Ambion, TX, USA) and polyadenylated using the Ambion PolyA tailing kit (Ambion). After transcription and polyadenylation the RNA was purified with the MEGAclear ^TM Kit (Ambion, Catalog No. AM1908). The final RNA concentration was measured on NanoDrop® ND-1000 and finally diluted and stored in diethylpyrocarbonate-treated water at −80 °C. For the microinjection, the RNA of αβ receptor combinations was mixed at 1:1 ratio (which leads to αβ receptors that consist of predominantly 3 beta and 2 alpha subunits[27]), for αkβlγm (k = 1–3, l = 1, 3, m = 1, 2) receptors at 1:1:5 ratio, for αkβ3γ2 (k = 4–6) and αkβlδ (k = 1, 4 and 6, l = 1, 3) receptor combinations at 3:1:5 ratio.
# (§3) Mature female Xenopus laevis (Nasco, WI) were anesthetized in a bath of ice-cold 0.17% Tricain (Ethyl-m-aminobenzoate, Sigma, MO) before decapitation in full accordance with all rules of the Austrian animal protection law (see http://www.ris.bka.gv.at/Dokumente/BgblAuth/BGBLA_2012_I_114/BGBLA_2012_I_114.pdf) and the Austrian animal experiment by-laws (see https://www.ris.bka.gv.at/Dokumente/BgblAuth/BGBLA_2012_II_522/BGBLA_2012_II_522.pdf) which implement the European Directive 2010/63/EU (see http://eur-lex.europa.eu/LexUriServ/LexUriServ.do?uri=OJ:L:2010:276:0033:0079:en:PDF) into the Austrian law (all information accessed on July 27, 2016). The frog’s ovaries were transferred to ND96 medium (96 mM NaCl, 2 mM KCl, 1 mM MgCl2, 5 mM HEPES; pH 7.5). Stage 5–6 oocytes with the follicle cell layer around them were roughly dissected with forceps into packages of 10–15 cells and washed in Ca^2+-free ND96 medium. Cells were then digested with collagenase (type IA, Sigma, NO, 1 mg/mL ND96) at 18 °C shaking at 30 rpm for 30–60 minutes and gently defolliculated with the aid of a glass pipette with appropriate tip diameter and a platinum loop. Defolliculated cells were stored at 18 °C for at least 6 hours in ND96 solution containing penicillin G (10000 IU/100 mL) and streptomycin (10 mg/100 mL) in order to preselect and exclude damaged cells from further treatment. Healthy defolliculated oocytes were injected with an aqueous solution of mRNA. A total of 4.5 ng of mRNA per oocyte was injected with a Nanoject II (Drummond). After injection of mRNA, oocytes were incubated at 18 °C (ND96 + antibiotic) for 2–3 days for αβ receptors and for 3–4 days for αβγ or αβδ receptors before recording. When cells were measured at later time points, oocytes were stored at +4 °C instead of 18 °C.
# (§4) For electrophysiological recordings, oocytes were placed on a nylon-grid in a bath of Ca^2+-containing NDE solution medium [96 mM NaCl, 5 mM HEPES-NaOH (pH 7.5), 2 mM KCl, 1 mM MgCl2, 1.8 mM CaCl2].
# [2] = biological target: T2, α1β2 GABAA receptors (Rattus norvegicus, UniProt P62813+P63138); test: Two electrode voltage clamp in Xenopus laevis oocytes, α1β2
# T2 construct: expressed in transfected cells; host or cells: Xenopus laevis oocytes, mRNA injected
# Description: as §1, §2, §3, §4
# [3] = biological target: T3, α1β1 GABAA receptors (Rattus norvegicus, UniProt P15431+P62813); test: Two electrode voltage clamp in Xenopus laevis oocytes, α1β1; details: for EC50: read-out: EC50
# T3 construct: expressed in transfected cells; host or cells: Xenopus laevis oocytes, mRNA injected
# Description: as §1, §2, §3, §4
# [4] = biological target: T4, α1β3 GABAA receptors (Rattus norvegicus, UniProt P62813+P63079); test: Two electrode voltage clamp in Xenopus laevis oocytes, α1β3
# T4 construct: expressed in transfected cells; host or cells: Xenopus laevis oocytes, mRNA injected
# Description: as §1, §2, §3, §4
# [5] = biological target: T5, α1β1R41N GABAA receptors (Rattus norvegicus, UniProt P15431+P62813, R66N); test: Two electrode voltage clamp in Xenopus laevis oocytes, mutant α1β1R41N
# T5 construct: expressed in transfected cells; host or cells: Xenopus laevis oocytes, mRNA injected
# Description: as §1, §2, §3, §4
# T3 sequence (P62813 28-455): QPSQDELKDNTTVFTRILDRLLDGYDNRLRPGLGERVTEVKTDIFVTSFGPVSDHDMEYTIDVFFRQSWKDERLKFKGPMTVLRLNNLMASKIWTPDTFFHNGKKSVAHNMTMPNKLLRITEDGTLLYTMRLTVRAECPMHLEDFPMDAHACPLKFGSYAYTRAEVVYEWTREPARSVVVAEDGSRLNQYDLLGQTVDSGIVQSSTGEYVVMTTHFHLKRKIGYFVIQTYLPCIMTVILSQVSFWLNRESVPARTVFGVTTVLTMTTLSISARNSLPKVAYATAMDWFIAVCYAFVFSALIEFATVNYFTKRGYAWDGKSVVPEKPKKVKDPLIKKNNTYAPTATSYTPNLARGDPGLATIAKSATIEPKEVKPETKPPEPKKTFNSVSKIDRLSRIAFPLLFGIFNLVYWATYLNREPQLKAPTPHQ
# T3 sequence (P15431 26-474): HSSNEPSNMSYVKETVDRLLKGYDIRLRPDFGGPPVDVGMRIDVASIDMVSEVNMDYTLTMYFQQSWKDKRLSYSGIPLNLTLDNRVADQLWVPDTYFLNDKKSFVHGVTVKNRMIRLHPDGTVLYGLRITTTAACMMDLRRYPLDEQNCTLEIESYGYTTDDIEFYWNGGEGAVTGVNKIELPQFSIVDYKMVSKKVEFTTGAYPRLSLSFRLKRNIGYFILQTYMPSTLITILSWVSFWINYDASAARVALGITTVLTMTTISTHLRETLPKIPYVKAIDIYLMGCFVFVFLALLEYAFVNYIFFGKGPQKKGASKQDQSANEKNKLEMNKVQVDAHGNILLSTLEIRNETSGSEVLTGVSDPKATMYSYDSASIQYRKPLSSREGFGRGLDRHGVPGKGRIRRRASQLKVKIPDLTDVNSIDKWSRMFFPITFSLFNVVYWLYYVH
# T2 sequence (P62813 28-455): as the sequence (P62813 28-455) above
# T2 sequence (P63138 25-474 limits assumed): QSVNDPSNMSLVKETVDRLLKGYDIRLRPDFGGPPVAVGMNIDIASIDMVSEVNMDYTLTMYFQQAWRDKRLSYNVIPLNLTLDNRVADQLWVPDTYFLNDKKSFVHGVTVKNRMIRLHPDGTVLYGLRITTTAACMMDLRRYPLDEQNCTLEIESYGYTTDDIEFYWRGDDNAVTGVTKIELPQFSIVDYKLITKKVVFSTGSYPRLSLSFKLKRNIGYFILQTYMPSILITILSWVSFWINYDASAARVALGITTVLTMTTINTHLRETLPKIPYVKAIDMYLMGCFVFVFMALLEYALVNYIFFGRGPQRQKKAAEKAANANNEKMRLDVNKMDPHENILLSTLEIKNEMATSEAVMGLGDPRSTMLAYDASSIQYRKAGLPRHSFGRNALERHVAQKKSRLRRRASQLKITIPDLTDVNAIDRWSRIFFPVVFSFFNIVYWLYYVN
# T4 sequence (P62813 28-455): as the sequence (P62813 28-455) above
# T4 sequence (P63079 26-473): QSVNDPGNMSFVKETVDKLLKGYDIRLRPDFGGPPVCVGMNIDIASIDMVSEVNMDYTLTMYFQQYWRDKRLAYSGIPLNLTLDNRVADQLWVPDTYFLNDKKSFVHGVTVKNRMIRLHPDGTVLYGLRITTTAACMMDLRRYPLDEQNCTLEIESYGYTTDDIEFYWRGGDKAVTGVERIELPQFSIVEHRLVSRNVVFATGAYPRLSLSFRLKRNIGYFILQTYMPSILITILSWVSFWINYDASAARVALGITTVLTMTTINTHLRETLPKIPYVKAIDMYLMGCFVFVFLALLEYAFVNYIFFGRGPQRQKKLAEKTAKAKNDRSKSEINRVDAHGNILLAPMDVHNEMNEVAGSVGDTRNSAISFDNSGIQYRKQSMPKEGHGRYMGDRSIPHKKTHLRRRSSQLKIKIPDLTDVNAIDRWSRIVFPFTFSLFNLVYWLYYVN
# T5 sequence (P62813 28-455): as the sequence (P62813 28-455) above
# T5 sequence (P15431 26-474 R66N): as the sequence (P15431 26-474) above, with R41N counted along it
# T1 sequence (P62813 28-455): as the sequence (P62813 28-455) above
# T1 sequence (P63079 26-473 N66R): as the sequence (P63079 26-473) above, with N41R counted along it
structure (smiles),measurement,setting,value
"COc1ccc(-n2nc3c4cc(OC)ccc4[nH]cc-3c2=O)cc1 [Compound 4, 8-Methoxy-2-(4-methoxyphenyl)-2,5-dihydro-3H-pyrazolo[4,3-c]quinolin-3-one]",EC50,[1],1.2 µM
same,EC50,[2],2.62 µM
same,activity at 0.003 µM,"[2]; read-out: efficacy, % of control current (GABA EC3-5 = 100%), α1β2, 3 nM",100%
same,activity at 0.03 µM,"[2]; read-out: efficacy, % of control current (GABA EC3-5 = 100%), α1β2, 30 nM",100%
same,activity at 0.3 µM,"[2]; read-out: efficacy, % of control current (GABA EC3-5 = 100%), α1β2, 300 nM",166 ± 7.9%
same,activity at 3 µM,"[2]; read-out: efficacy, % of control current (GABA EC3-5 = 100%), α1β2, 3 µM",689 ± 82.9%
same,Hill slope (nH),[2]; α1β2,1.3±0.5
same,activity at 0.001 µM,"[3]; read-out: efficacy, % of control current (GABA EC3-5 = 100%), α1β1, 1 nM",100%
same,activity at 0.003 µM,"[3]; read-out: efficacy, % of control current (GABA EC3-5 = 100%), α1β1, 3 nM",100%
same,activity at 0.03 µM,"[3]; read-out: efficacy, % of control current (GABA EC3-5 = 100%), α1β1, 30 nM",127 ± 1%
same,activity at 0.3 µM,"[3]; read-out: efficacy, % of control current (GABA EC3-5 = 100%), α1β1, 300 nM",397 ± 54.9%
same,activity at 30 µM,"[3]; read-out: efficacy, % of control current (GABA EC3-5 = 100%), α1β1, 30 µM",218 ± 11%
same,Hill slope (nH),[3]; α1β1,1.8±0.4
same,EC50,[3]; α1β1 (α1+/β1− interface),~0.2 µM
same,EC50,"[3]; α1β1, co-applied with GABA EC3-5",0.21 µM
same,activity at 0.3 µM,"[4]; read-out: efficacy, % of control current (GABA EC3-5 = 100%), α1β3, 300 nM",149 ± 15.8%
same,activity at 1 µM,"[4]; read-out: efficacy, % of control current (GABA EC3-5 = 100%), α1β3, 1 µM",242 ± 16%
same,activity at 3 µM,"[4]; read-out: efficacy, % of control current (GABA EC3-5 = 100%), α1β3, 3 µM",654 ± 109%
same,Hill slope (nH),[4]; α1β3,1.9±0.5
same,EC50,"[4]; α1β3, co-applied with GABA EC3-5, read-out: EC50",3.13 µM
same,EC50,"[4]; α1β3, log of EC50, sign as printed, read-out: LogEC50 (converted)",3.09 µM
same,current as % of control at 0.1 µM,"[5]; 100nM, read-out: % of control current at EC3-5",80 ± 10%
same,current as % of control at 0.3 µM,"[5]; 300nM, read-out: % of control current at EC3-5",85 ± 12%
same,current as % of control at 1 µM,"[5]; 1μM, read-out: % of control current at EC3-5",110 ± 20%
same,current as % of control at 3 µM,"[5]; 3µM, read-out: % of control current at EC3-5",150 ± 25%
same,current as % of control at 10 µM,"[5]; 10μM, read-out: % of control current at EC3-5",180 ± 45%
same,current as % of control at 30 µM,"[5]; 30μM, read-out: % of control current at EC3-5",140 ± 15%
same,EC50,[5]; co-applied with GABA EC3-5,1.2 µM
